Each structure is given as a SMILES string.

Holding throughout (assay type): biochemical
For one test, the target named is PI3K β (Homo sapiens, UniProt P42338). Description: In vitro IC50, PI3K β. The source says:
(§1) An exemplary system is PI 3-Kinase (human) HTRF™ Assay from Upstate.

The target in another test is T1, PI3K γ (Homo sapiens, UniProt P48736).
T1 construct: purchased Sigma
The experiment in a line: In vitro IC50, PI3K γ.
Description: as §1

For a further test, the target named is T2, PI3K α (Homo sapiens, UniProt P42336).
T2 construct: purchased Upstate
Description: In vitro IC50, PI3K α.
Description: as §1

For a further test, the target named is PI3K δ (Homo sapiens, UniProt O00329). Description: In vitro IC50, PI3K δ. Further details: purchased Upstate.
Description: as §1

T2 sequence (P42336 whole entry): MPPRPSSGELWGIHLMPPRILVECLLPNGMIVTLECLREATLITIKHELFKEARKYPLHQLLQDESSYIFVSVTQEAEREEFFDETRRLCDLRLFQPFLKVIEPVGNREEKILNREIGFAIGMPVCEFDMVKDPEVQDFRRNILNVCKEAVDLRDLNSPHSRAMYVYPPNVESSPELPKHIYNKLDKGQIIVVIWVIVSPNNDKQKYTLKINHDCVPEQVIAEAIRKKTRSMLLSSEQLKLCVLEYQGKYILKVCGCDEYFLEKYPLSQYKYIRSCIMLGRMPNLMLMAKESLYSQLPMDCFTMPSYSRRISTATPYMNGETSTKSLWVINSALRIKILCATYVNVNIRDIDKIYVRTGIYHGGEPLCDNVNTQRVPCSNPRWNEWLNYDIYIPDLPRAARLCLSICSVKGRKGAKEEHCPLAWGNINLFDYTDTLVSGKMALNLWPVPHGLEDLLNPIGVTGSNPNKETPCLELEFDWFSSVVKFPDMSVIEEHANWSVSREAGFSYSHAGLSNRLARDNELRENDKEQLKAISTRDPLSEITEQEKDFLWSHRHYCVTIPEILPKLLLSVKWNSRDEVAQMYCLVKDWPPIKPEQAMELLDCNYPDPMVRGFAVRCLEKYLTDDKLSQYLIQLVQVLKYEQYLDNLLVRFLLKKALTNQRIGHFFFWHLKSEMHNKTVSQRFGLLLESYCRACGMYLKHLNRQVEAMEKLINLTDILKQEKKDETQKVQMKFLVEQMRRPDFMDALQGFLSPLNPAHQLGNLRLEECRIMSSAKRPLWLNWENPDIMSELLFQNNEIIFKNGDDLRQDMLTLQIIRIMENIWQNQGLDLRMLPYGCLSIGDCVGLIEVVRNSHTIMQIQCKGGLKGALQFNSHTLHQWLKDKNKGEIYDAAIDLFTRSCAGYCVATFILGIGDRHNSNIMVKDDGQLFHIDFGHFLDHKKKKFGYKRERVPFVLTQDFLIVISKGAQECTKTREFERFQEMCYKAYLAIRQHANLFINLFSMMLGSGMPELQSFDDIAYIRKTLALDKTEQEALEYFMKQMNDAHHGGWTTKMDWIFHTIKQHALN
T2 sequence (P27986 whole entry partner): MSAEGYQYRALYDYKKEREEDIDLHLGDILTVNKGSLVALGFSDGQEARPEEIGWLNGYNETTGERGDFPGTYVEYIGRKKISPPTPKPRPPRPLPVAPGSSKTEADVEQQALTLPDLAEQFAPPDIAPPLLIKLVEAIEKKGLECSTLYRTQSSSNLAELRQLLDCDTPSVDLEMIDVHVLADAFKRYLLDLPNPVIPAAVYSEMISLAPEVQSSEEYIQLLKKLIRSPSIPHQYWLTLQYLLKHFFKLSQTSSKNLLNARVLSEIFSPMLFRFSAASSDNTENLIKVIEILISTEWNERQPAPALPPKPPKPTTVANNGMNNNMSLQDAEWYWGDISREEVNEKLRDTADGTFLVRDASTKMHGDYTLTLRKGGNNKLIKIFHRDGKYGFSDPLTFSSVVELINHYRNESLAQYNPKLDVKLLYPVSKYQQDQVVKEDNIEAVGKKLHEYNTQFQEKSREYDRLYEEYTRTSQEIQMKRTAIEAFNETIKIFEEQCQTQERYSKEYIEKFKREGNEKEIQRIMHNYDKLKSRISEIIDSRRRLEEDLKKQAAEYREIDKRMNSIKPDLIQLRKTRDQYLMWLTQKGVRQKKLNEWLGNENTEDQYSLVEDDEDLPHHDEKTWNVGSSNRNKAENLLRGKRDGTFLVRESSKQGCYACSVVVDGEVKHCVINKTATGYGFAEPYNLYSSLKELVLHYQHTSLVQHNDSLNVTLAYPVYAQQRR
PI3K β, sequence (P42338 whole entry): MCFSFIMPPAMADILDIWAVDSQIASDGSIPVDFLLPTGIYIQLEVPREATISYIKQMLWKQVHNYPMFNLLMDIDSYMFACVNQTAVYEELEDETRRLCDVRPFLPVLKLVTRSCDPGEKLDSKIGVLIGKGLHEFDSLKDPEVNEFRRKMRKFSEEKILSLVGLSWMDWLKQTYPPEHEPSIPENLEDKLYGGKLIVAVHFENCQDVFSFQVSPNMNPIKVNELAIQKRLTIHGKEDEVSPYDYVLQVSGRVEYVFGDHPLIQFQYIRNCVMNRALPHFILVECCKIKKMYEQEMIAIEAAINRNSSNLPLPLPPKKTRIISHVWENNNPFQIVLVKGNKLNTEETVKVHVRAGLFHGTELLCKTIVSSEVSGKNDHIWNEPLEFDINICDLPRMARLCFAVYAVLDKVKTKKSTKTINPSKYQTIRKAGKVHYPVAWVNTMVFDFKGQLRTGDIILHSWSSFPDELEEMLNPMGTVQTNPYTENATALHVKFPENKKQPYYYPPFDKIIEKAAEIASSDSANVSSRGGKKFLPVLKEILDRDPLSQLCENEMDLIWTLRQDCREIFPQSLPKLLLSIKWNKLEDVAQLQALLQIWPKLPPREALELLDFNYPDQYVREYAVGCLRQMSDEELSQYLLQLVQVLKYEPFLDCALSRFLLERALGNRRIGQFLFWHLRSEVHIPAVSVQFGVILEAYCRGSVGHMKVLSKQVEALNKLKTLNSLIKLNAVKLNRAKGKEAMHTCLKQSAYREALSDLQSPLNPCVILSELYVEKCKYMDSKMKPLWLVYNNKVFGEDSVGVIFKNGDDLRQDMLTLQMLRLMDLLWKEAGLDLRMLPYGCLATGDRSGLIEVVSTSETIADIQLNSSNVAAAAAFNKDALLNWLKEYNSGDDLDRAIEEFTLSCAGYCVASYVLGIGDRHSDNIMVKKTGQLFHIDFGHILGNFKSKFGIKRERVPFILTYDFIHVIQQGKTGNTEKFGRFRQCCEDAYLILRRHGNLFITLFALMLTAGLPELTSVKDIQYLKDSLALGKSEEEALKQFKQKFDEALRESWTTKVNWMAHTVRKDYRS
T1 sequence (P48736 whole entry): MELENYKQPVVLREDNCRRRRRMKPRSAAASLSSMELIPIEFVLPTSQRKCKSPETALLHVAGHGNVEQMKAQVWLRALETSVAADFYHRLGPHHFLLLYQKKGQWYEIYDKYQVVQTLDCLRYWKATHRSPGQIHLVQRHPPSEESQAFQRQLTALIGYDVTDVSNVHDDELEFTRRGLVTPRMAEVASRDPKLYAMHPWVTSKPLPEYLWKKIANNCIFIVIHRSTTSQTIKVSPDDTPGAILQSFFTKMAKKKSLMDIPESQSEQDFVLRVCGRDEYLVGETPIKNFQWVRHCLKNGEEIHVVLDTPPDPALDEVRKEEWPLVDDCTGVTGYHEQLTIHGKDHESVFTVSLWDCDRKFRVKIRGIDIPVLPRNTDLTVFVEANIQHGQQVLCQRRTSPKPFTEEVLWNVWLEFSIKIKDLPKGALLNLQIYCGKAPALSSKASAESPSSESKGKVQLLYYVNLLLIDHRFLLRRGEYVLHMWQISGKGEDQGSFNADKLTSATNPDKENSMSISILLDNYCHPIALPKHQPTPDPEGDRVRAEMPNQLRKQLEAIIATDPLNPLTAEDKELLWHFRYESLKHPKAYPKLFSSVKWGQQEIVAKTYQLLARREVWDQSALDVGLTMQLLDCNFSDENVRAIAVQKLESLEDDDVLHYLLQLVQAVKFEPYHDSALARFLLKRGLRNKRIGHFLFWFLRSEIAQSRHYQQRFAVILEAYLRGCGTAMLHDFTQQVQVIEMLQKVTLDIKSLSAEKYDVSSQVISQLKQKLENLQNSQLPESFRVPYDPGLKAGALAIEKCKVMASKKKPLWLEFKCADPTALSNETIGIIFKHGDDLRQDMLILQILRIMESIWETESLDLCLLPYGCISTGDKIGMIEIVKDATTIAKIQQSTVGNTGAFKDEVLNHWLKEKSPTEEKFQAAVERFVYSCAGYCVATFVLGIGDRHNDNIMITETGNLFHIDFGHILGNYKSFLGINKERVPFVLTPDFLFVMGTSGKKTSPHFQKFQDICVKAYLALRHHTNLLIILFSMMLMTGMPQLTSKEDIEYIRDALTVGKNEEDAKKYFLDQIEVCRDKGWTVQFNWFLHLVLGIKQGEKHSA
PI3K δ, sequence (O00329 whole entry): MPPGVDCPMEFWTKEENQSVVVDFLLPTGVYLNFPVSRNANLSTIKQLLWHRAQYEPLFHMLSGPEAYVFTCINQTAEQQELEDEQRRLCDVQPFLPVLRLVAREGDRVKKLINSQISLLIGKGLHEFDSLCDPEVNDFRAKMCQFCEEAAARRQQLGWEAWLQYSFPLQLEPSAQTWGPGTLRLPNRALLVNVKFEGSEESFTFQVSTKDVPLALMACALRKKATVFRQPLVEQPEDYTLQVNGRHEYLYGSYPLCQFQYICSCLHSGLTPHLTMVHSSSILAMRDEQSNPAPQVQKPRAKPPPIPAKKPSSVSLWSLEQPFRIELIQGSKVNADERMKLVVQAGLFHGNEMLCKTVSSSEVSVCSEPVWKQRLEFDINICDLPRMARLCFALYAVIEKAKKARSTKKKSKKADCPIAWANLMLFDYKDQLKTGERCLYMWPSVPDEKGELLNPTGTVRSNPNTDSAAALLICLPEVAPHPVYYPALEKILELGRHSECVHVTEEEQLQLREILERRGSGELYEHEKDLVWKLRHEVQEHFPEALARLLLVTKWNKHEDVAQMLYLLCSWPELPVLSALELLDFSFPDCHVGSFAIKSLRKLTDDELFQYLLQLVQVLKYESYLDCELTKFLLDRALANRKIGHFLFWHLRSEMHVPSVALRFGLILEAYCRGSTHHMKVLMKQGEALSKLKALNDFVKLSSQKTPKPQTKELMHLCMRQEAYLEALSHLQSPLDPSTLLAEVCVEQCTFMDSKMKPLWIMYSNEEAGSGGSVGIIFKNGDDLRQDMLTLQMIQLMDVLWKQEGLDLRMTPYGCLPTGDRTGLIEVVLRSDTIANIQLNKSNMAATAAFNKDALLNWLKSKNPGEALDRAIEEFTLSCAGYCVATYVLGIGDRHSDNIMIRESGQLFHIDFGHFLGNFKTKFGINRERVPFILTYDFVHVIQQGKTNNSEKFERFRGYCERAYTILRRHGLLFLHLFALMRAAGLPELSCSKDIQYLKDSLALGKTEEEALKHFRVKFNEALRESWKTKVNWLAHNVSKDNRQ
PI3K δ, sequence (P27986 whole entry partner): as the sequence (P27986 whole entry partner) above

A word on the IC50: it is the concentration that gives 50% inhibition. A lower IC50 goes with greater potency in that assay. Consider `CCc1ccccc1-n1c(Cn2nc(-c3cn[nH]c3)c3c(N)ncnc32)cc2cccc(C)c2c1=O` [Compound 190], for which the IC50 against PI3K β was under 10000 nM; on PI3K γ it was under 100 nM; on PI3K α it was under 10000 nM; on PI3K δ it was under 100 nM.

Take `CC(=O)Nc1nc2cc(-c3nn(Cc4cc5cccc(C)c5c(=O)n4-c4ccccc4C)c4ncnc(N)c34)ccc2s1` [Compound 274]: the IC50 against PI3K β is under 10000 nM; at PI3K γ, under 10000 nM; at PI3K α, over 10000 nM; against PI3K δ it was under 1000 nM.

With `Cc1cccc2cc([C@H](C)Nc3ncnc4[nH]ccc34)n(-c3ccccc3)c(=O)c12` [Compound 247], the 50% inhibitory concentration (IC50) against PI3K β was under 10000 nM; against PI3K γ it was under 100 nM; against PI3K α it was over 10000 nM; on PI3K δ, under 100 nM.

Consider `Cc1cccc2cc(Cn3nc(-c4cc(O)cc(F)c4)c4c(N)ncnc43)n(-c3ccccc3O)c(=O)c12` [Compound 90], for which the IC50 against PI3K β is under 1000 nM; at PI3K γ it was under 100 nM; against PI3K α, under 10000 nM; against PI3K δ it was under 100 nM.

Consider `Cc1cccc2cc(Cn3nc(-c4cc(O)cc(F)c4)c4c(N)ncnc43)n(-c3ccccc3OCCN3CCOCC3)c(=O)c12` [Compound 108], for which the IC50 was under 10000 nM against PI3K β, under 1000 nM at PI3K γ, under 10000 nM against PI3K α and under 100 nM on PI3K δ.

For the compound `COc1cc(-c2nn(Cc3cc4cccc(C)c4c(=O)n3-c3ccccc3F)c3ncnc(N)c23)ccc1Cl` [Compound 22], the IC50 at PI3K β was over 10000 nM; at PI3K γ, under 1000 nM; on PI3K α it was over 10000 nM; on PI3K δ, under 10000 nM.

For the compound `Cc1ccccc1-n1c(Cn2nc(-c3ccc(F)c(O)c3)c3c(N)ncnc32)cc2ccccc2c1=O` [Compound 54], the IC50 against PI3K β is over 10000 nM; at PI3K γ, under 100 nM; against PI3K α, over 10000 nM; at PI3K δ it was under 100 nM.

As for `Cc1ccccc1-n1c(Cn2nc(-c3ccc4nc(N)[nH]c4c3)c3c(N)ncnc32)cc2cccc(C)c2c1=O` [Compound 295], the concentration for half-maximal inhibition (IC50) at PI3K β is under 10000 nM; against PI3K γ it was under 100 nM; on PI3K α, under 10000 nM; against PI3K δ, under 100 nM.

On to `CCc1ccccc1-n1c(Cn2nc(C#C[C@@H](C)O)c3c(N)ncnc32)cc2cccc(C)c2c1=O` [Compound 99], for which the IC50 is under 10000 nM against PI3K β, under 1000 nM at PI3K γ, over 10000 nM against PI3K α and under 100 nM on PI3K δ.

`Cc1ccccc1-n1c(Cn2nc(-c3ccc(F)c(O)c3)c3c(N)ncnc32)cc2cccc(C)c2c1=O` [Compound 12]: the 50% inhibitory concentration (IC50) on PI3K β is under 10000 nM; on PI3K γ it was under 100 nM; at PI3K α it was over 10000 nM; against PI3K δ it was under 100 nM.

As for `Cc1ccccc1-n1c(C(C)Nc2ncnc3[nH]cnc23)cc2cccc(C)c2c1=O` (stereo not drawn) [Compound 191], the IC50 at PI3K β was under 10000 nM; against PI3K γ, under 100 nM; against PI3K α, over 10000 nM; against PI3K δ, under 100 nM.

For the compound `Cc1cccc2cc([C@H](C)Nc3ncnc4[nH]cc(Br)c34)n(C3CC3)c(=O)c12` [Compound 272], the IC50 against PI3K β was under 100 nM; on PI3K γ, under 100 nM; against PI3K α it was under 1000 nM; on PI3K δ it was under 100 nM.

Take `Cc1cccc2cc(Cn3nc(-c4cn[nH]c4)c4c(N)ncnc43)n(-c3ccccc3F)c(=O)c12` [Compound 161]: the IC50 is under 10000 nM on PI3K β, under 1000 nM on PI3K γ, over 10000 nM at PI3K α and under 100 nM at PI3K δ.

On to `Cc1cccc2cc(Cn3nc(-c4cccc(O)c4)c4c(N)ncnc43)n(-c3ccccc3F)c(=O)c12` [Compound 10], for which the IC50 against PI3K β was over 10000 nM; against PI3K γ, under 1000 nM; against PI3K α it was over 10000 nM; against PI3K δ, under 100 nM.

As for `Cc1ccccc1-n1c(Cn2nc(C#CC3CC3)c3c(N)ncnc32)cc2cccc(C)c2c1=O` [Compound 14], the concentration for half-maximal inhibition (IC50) is over 10000 nM on PI3K β, under 1000 nM against PI3K γ, over 10000 nM against PI3K α and under 1000 nM against PI3K δ.

For `Cc1cccc2cc(Cn3nc(C#C[C@@H](C)O)c4c(N)ncnc43)n(C3CC3)c(=O)c12` [Compound 100], the IC50 on PI3K β is under 1000 nM; against PI3K γ it was under 1000 nM; against PI3K α, over 10000 nM; at PI3K δ, under 100 nM.

On to `Cc1cccc2cc(Cn3nc(C#C[C@@H](C)O)c4c(N)ncnc43)n(-c3ccccc3Cl)c(=O)c12` [Compound 98], for which the IC50 was over 10000 nM at PI3K β, under 1000 nM on PI3K γ, over 10000 nM on PI3K α and under 100 nM at PI3K δ.

`Cc1ccccc1-n1c(Cn2nc(C#C[C@@H](C)O)c3c(N)ncnc32)cc2cccc(C)c2c1=O` [Compound 37]: the IC50 on PI3K β was over 10000 nM; against PI3K γ, under 10000 nM; at PI3K α, over 10000 nM; at PI3K δ, under 100 nM.

As to `Cc1cccc2cc(Cn3nc(-c4ccc5oc(N)nc5c4)c4c(N)ncnc43)n(C3CC3)c(=O)c12` [Compound 201], the IC50 against PI3K β was under 1000 nM; against PI3K γ it was under 100 nM; against PI3K α, under 100 nM; against PI3K δ, under 100 nM.

For `Cc1cccc2cc([C@H](C)Nc3ncnc4[nH]cc(F)c34)n(-c3ccccc3)c(=O)c12` [Compound 254], the IC50 was under 100 nM against PI3K β, under 100 nM against PI3K γ, under 10000 nM against PI3K α and under 100 nM at PI3K δ.

Take `C=C(C)c1nn(Cc2cc3cccc(C)c3c(=O)n2-c2ccccc2)c2ncnc(N)c12` [Compound 316]: the IC50 was under 10000 nM against PI3K β, under 1000 nM against PI3K γ, over 10000 nM on PI3K α and under 100 nM against PI3K δ.

For `Cc1ccccc1-n1c(Cn2nc(-c3cn[nH]c3)c3c(N)ncnc32)cc2cccc(C)c2c1=O` [Compound 160], the half-inhibitory concentration (IC50) on PI3K β was under 10000 nM; against PI3K γ it was under 100 nM; against PI3K α, over 10000 nM; at PI3K δ, under 100 nM.

With `Cc1cccc2cc([C@H](C)Nc3ncnc4[nH]cc(Cl)c34)n(-c3ccccc3)c(=O)c12` [Compound 262], the IC50 is under 100 nM at PI3K β, under 100 nM against PI3K γ, under 1000 nM against PI3K α and under 100 nM against PI3K δ.

As to `Cc1ccccc1-n1c(Cn2nc(-c3cccc(O)c3)c3c(N)ncnc32)cc2cccc(F)c2c1=O` [Compound 59], the IC50 against PI3K β was over 10000 nM; on PI3K γ, under 100 nM; on PI3K α, over 10000 nM; against PI3K δ, under 100 nM.

`Cc1cccc2cc(Cn3nc(C4=CCOCC4)c4c(N)ncnc43)n(-c3ccccc3)c(=O)c12` [Compound 315]: the concentration for half-maximal inhibition (IC50) against PI3K β, on PI3K γ, on PI3K α and on PI3K δ was over 10000 nM each time.

As for `Cc1cccc2cc(Cn3nc(C#C[C@@H](C)O)c4c(N)ncnc43)n(-c3ccccc3C(C)C)c(=O)c12` [Compound 83], the IC50 against PI3K β is under 10000 nM; at PI3K γ it was under 100 nM; at PI3K α, over 10000 nM; against PI3K δ, under 100 nM.

For `Cc1cccc2cc(Cn3nc(-c4ccc(F)c(O)c4)c4c(N)ncnc43)n(C3CCCC3)c(=O)c12` [Compound 64], the half-inhibitory concentration (IC50) is over 10000 nM against PI3K β, under 100 nM on PI3K γ, over 10000 nM at PI3K α and under 100 nM against PI3K δ.

Take `Cc1cccnc1-n1c(Cn2nc(-c3ccc(F)c(O)c3)c3c(N)ncnc32)cc2cccc(C)c2c1=O` [Compound 68]: the 50% inhibitory concentration (IC50) against PI3K β was over 10000 nM; against PI3K γ it was under 100 nM; against PI3K α it was over 10000 nM; against PI3K δ it was under 100 nM.

Regarding `Cc1cccc2cc(Cn3nc(-c4cn[nH]c4)c4c(N)ncnc43)n(-c3ccccc3Cl)c(=O)c12` [Compound 188], the 50% inhibitory concentration (IC50) on PI3K β was over 10000 nM; at PI3K γ, under 1000 nM; at PI3K α, over 10000 nM; against PI3K δ, under 100 nM.

On to `Cc1cccc2cc(Cn3nc(C#C[C@@H](C)O)c4c(N)ncnc43)n(-c3ccccc3F)c(=O)c12` [Compound 28], for which the 50% inhibitory concentration (IC50) is over 10000 nM on PI3K β, under 1000 nM against PI3K γ, over 10000 nM at PI3K α and under 100 nM on PI3K δ.

Consider `Cc1cccc2cc([C@H](C)Nc3ncnc4[nH]nc(C#N)c34)n(-c3ccccc3)c(=O)c12` [Compound 255], for which the IC50 against PI3K β is under 100 nM; at PI3K γ it was under 100 nM; on PI3K α, under 10000 nM; on PI3K δ, under 100 nM.

Turning to `Cc1cccc2cc(Cn3nc(-c4cn[nH]c4)c4c(N)ncnc43)n(-c3ccccc3C(F)(F)F)c(=O)c12` [Compound 214], the IC50 against PI3K β is under 10000 nM; at PI3K γ, under 1000 nM; against PI3K α, over 10000 nM; against PI3K δ, under 100 nM.

On to `Cc1cccc2cc([C@H](C)Nc3nc(N)ncc3Cl)n(-c3ccccc3)c(=O)c12` [Compound 249], for which the IC50 is under 10000 nM at PI3K β, under 100 nM against PI3K γ, over 10000 nM at PI3K α and under 100 nM against PI3K δ.

Turning to `Cc1ccccc1-n1c(Cn2nc(-c3ccc4sc(N)nc4c3)c3c(N)ncnc32)cc2cccc(C)c2c1=O` [Compound 276], the IC50 on PI3K β was under 1000 nM; against PI3K γ, under 100 nM; on PI3K α, under 1000 nM; on PI3K δ it was under 100 nM.

For `Cc1ccccc1-n1c(Cn2nc(-c3ccc4ncnc(N)c4c3)c3c(N)ncnc32)cc2cccc(C)c2c1=O` [Compound 152], the IC50 against PI3K β is over 10000 nM; against PI3K γ, under 100 nM; at PI3K α, under 10000 nM; at PI3K δ it was under 100 nM.

On to `CCC(Nc1ncnc2[nH]cnc12)c1cc2cccc(C)c2c(=O)n1-c1cc(F)cc(F)c1` (stereo not drawn) [Compound 224], for which the IC50 against PI3K β is over 10000 nM; on PI3K γ, under 10000 nM; on PI3K α, over 10000 nM; against PI3K δ it was under 100 nM.
